The target in one data set is T1, BACE1 (Homo sapiens, UniProt P56817).
T1 construct: purchased R&D 931-AS-050
Put plainly: in vitro BACE inhibition assay (Primary BACE1 IC50). Format: biochemical. An excerpt: (§1) ABBI Assay: APP Binding BACE Inhibitor (ABBI) activity of any of the compounds described herein can readily be verified using, for example, assays described herein. Basically, in certain embodiments a pair the assays are utilized to identify ABBI compounds that inhibit BACE cleavage of the MBP-C125 APP substrate, resulting in the inhibition of the production of C99 and the β-site peptide substrate (P5-P5′) and also interacts with APP, for example, as measured by surface plasmon resonance (SPR) analysis. In one illustrative embodiment, an MBP-C125 APP695 wt fusion protein can be used as one of the substrates and the second substrate can be the commercially available P5-P5′ fluorescence substrate.

For the next data set, the target named is T2, APP (Homo sapiens, UniProt P05067).
T2 construct: made in house
The data set is described as follows: APP binding (APP Kd), surface plasmon resonance.
Excerpt: as §1, with “substrate. […]” for “substrate.”

The nature of data set [1]: PAMPA parallel artificial membrane permeability assay. Format: in vitro ADME. The following applies: Table 4.

Like-named read-outs stand apart in the source and are kept apart here.

T1 sequence (P56817 46-457 limits assumed): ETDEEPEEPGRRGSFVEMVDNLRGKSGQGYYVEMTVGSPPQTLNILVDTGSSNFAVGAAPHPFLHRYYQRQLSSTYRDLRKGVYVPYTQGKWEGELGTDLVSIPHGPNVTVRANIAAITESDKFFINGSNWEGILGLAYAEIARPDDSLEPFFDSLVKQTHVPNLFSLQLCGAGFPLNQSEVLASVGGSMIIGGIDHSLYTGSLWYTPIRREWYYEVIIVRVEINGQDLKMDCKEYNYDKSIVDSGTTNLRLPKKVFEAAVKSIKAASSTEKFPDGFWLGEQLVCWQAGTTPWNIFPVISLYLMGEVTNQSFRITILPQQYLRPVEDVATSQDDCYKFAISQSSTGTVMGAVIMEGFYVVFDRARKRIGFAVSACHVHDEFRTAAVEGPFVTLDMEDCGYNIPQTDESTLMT
T2 sequence (P05067 230-624 isoform P05067-4): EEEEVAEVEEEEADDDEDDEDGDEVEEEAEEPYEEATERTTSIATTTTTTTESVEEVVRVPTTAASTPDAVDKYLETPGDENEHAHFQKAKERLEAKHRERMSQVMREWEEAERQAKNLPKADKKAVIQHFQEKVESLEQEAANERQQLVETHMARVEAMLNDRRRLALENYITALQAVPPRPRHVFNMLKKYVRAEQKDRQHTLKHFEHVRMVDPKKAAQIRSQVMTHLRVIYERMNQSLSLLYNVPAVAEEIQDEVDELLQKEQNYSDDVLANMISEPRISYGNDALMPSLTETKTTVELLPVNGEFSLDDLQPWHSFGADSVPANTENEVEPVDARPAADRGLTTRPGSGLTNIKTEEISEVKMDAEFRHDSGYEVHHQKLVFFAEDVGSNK

Turning to `Cc1cc(C2(c3cc(F)cc(F)c3)N=C(N)N(C)C2=O)ccc1OC(F)F` (stereo not shown) [FAH-03], the IC50 at BACE1 (Tables 1 and 2, read-out: Primary BACE1 IC50) was found to be 530 nM. In addition, the Kd at APP was around 300 nM.

In the case of `CNCCc1cccc(C2(c3ccc(OC(F)F)c(C)c3)N=C(N)N(C)C2=O)c1` (stereo not shown) [FAH-63], the PAMPA in data set [1] is 0.36. In addition, the IC50 at BACE1 (Table 4, several values in a cell = several determinations, read-out: BACE1 IC50) amounted to 1180 nM.
